From publication PMC5390258, “CMD-05, a novel promising clinical anti-diabetic drug candidate, in vivo and vitro studies” (Scientific Reports, 2017)
Read-outs that look alike come from different tables or passages of the source.

Assays:
plasma DPP-IV [1] = molecular target: T1, plasma DPP-IV (Rattus norvegicus, UniProt P14740); experiment: Plasma DPP-IV activity after single oral dose in fasting normal rats; assay type: in vivo; conditions: single oral 4.5 mg/kg
T1 construct: from tissue; host or cells: plasma of Sprague-Dawley rats
T1 sequence (P14740 whole entry): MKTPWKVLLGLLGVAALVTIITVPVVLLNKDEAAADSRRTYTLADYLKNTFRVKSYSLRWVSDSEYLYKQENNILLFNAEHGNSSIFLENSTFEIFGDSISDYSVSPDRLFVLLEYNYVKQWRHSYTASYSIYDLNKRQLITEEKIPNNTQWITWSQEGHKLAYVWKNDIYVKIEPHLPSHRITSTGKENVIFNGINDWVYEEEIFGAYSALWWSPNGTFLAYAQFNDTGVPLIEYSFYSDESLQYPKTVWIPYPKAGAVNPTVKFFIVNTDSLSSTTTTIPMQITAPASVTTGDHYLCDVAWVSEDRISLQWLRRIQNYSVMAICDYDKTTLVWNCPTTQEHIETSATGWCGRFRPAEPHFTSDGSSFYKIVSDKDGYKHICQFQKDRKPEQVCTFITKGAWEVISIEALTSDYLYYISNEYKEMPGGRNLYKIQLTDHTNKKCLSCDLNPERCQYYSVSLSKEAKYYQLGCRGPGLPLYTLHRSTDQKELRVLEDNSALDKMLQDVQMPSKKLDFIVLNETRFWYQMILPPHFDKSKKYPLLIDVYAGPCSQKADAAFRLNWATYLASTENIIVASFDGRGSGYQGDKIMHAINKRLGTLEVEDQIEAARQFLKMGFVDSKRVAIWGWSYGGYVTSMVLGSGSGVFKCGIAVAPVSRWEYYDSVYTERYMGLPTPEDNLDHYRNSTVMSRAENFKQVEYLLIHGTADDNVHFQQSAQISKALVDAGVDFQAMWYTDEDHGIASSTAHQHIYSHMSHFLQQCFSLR
Method: Oral glucose load, fasted and random blood samples was collected to measure DPP-IV activity at the 28th days, the 29th days and the last treatment of the CMD-05. DPP-IV enzyme assay was carried out according to a published method. The enzyme reaction was initiated by adding 5 mM Gly-Pro-AMC as a substrate. After 25 min of incubation, fluorescence of AMC released by the reaction was measured using a spectrofluorometer at an excitation wavelength of 353 nm and emission wavelength of 442 nm.
Blood samples were collected after administration of CMD-05 (4.5 mg/kg) at 15 min, 30 min, 1 h, 2 h, 4 h, 12 h, and 24 h to measure the DPP-IV activity in fasting normal rats, the concrete steps refer to the preceding.

INS-1 cells = experiment: Proliferation of INS-1 cells (CCK-8); assay type: cell-based, rat; conditions: 1 × 10^−4 and 3 × 10^−5 M, 24 h, CCK-8, vs DMSO
Method: The rat insulinoma cell line INS-1 (832/13) was obtained from the Department of endocrinology at 1st affiliated hospital of Chongqing medical university. Cells were cultured in RPMI 1640 (Gibco, USA) (11 mmol/l glucose, 100 units/ml penicillin, […] streptomycin, 10 mmol/l HEPES pH 7.4) supplemented with 10% FBS (Gibco, USA), 2 mmol/l L-glutamine, 1 mmol/l pyruvate, and 50 μmol/l β-mercaptoethanol. […] 10 μl of CCK-8 was then added and incubated at 37 °C and 5% CO2 for 1.5 h and […] (OD) was read at 460 nm with microplate reader. The OD value represents the proliferation activity.

293 cells = experiment: Cytotoxicity in 293 cells (CCK-8); assay type: cell-based; conditions: 12 h
Method: The toxicities of CMD-05 on HT22, 293 and […] cell lines was assessed using Cell Counting Kit-8 (CCK-8) (Biosharp, China). Briefly, the cells were plated on 96-well plates. […] The absorbance at 450 nm was measured using a microplate spectrophotometer.

HbA1c = HbA1c level in blood of model rats; assay type: in vivo, rat; conditions: 30 days
Method: (§1) To establish model of T2DM, male rats (80–100 g, 9-week-old)[49] were fed high fat diet (HFD) (20% sugar, 10% lard, 10% egg yolk and 60% basal feed) after a week of normal diet. After 4 weeks, rats were injected once with low-dose streptozotocin (Solarbio, China) (STZ, 30 mg/kg i.p) to induce partial insulin deficiency, and then continuously fed HFD for 4 weeks after injection of STZ. Then the model rats were oral administrated drugs for 30 days. The body weights were recorded once a week.
(§2) Oral glucose load, fasted and random blood samples were collected from rats on the 28th days, the 29th days and the last of the treatment of drugs, respectively. Plasma levels of insulin and GLP-1 were measured by ELISA kits (YuanYe, China) according to the manufacturer’s recommendation. The levels of HbA1c, Triglycerides (TG), total cholesterol (TC) and low density lipoprotein cholesterol (LDL-C) in blood samples were measured by commercial assay kits (JianCheng, Nanjing, China) according to the manufacturer’s directions.

Kunming mice = experiment: Acute toxicity in mice; assay type: in vivo
Method: For acute hypoglycemia test, male rats (150–250 g) were used. […].
Acute toxicological signs of included activities, nervous system response, autonomic nervous system response and death of mice were observed after a single oral dose of 2000 mg/kg.

GLP-1 = experiment: Plasma GLP-1 levels in model rats (ELISA); assay type: in vivo, rat; conditions: 4.5 mg/kg, glucose load and random plasma
Method: as §1, §2

plasma DPP-IV [2] = molecular target: T1, plasma DPP-IV; experiment: Plasma DPP-IV activity determination in model rats; assay type: in vivo
NCI-H716 cells = experiment: GLP-1 secretion in NCI-H716 cells; assay type: cell-based, human; conditions: 100 μM, 2 h; solvent group 6.6 ± 0.14 pmol/L
Method: Human enteroendocrine NCI-H716 cells were maintained in suspension culture as described by the American Type Culture Collection guideline (ATCC). Two days before the experiments, cells were seeded into 12-well culture plates coated with Matrigel at 1 × 10^6 cells per well. Cells were incubated in RPMI 1640 containing 10% FBS at 37 °C for 48 h. […] After incubated for 2 h, GLP-1 concentrations from the supernatants were measured by ELISA kits (YuanYe, China).

[3] = Body weight of model rats; assay type: in vivo, rat; conditions: 30 days treatment
Method: as §1

[4] = fasted plasma, read-out: plasma DPP-IV inhibition rate
[5] = glucose load plasma, read-out: plasma DPP-IV inhibition
[6] = random plasma, read-out: plasma DPP-IV inhibition

SMILES: N#C[C@@H]1CCCN1C(=O)CN(C(=O)CCCCCl)C12CC3CC(CC(O)(C3)C1)C2 [CMD-05]
- inhibition at 4.5 mg/kg (plasma DPP-IV [1]; rat, at 4 hours after the dose, read-out: maximum inhibition of plasma DPP-IV activity): ~90%
- duration of plasma DPP-IV inhibition greater than 50% (plasma DPP-IV [1]): at least 15 hours
- time of maximum inhibition of plasma DPP-IV activity (plasma DPP-IV [1]): 4 h
- cells viabilities (proliferation) of INS-1 cells (INS-1 cells): increased
- cytotoxicity (cell viability) (293 cells; 1 × 10^−4 M): slightly reduced cell viability
- cytotoxicity (cell viability) (293 cells; 3 × 10^−6 to 1 × 10^−5 M): did not induce significant cytotoxicity
- reduction of the level of HbA1c (HbA1c; 1.5 mg/kg): 1.0%
- reduction of the level of HbA1c (HbA1c; 4.5 mg/kg): 2.2%
- maximum tolerance dose (Kunming mice; oral): > 2000 mg/kg
- acute toxicity signs (Kunming mice; single oral dose of 2000 mg/kg): no toxicological signs
- levels of GLP-1 in plasma (GLP-1): significantly increased
- inhibition at 0.5 mg/kg (plasma DPP-IV [2]; [4]): ~20%
- inhibition at 1.5 mg/kg (plasma DPP-IV [2]; [4]): ~30%
- inhibition at 4.5 mg/kg (plasma DPP-IV [2]; [4]): ~50%
- inhibition at 0.5 mg/kg (plasma DPP-IV [2]; [5]): ~10%
- inhibition at 1.5 mg/kg (plasma DPP-IV [2]; [5]): ~20%
- inhibition at 4.5 mg/kg (plasma DPP-IV [2]; [5]): ~70%
- inhibition at 0.5 mg/kg (plasma DPP-IV [2]; [6]): ~20%
- inhibition at 1.5 mg/kg (plasma DPP-IV [2]; [6]): ~30%
- inhibition at 4.5 mg/kg (plasma DPP-IV [2]; [6]): ~55%
- GLP-1 secretion (NCI-H716 cells): 7.5 ± 0.44 pmol/L
- body weights vs model group [3]: no significant difference
